pEC50: −log10 of the molar value.
Columns and labels:
Type in all cases: cell-based
[1] = tested on: rat HEV replicon LA-B350/luc; assay: antiviral activity against rat HEV replicon LA-B350/luc in Huh7 cells (Gaussia luciferase); details: Huh-7, 72 h, 3 days, 50% reduction in Luc signal, two experiments
[2] = viability evaluation (MTS/PMS) of replicon RNA-transfected Huh7 cells, Example 2; details: human, highest tested concentration 50 μM
Excerpt: Obtained values are expressed as percent inhibition of untreated RNA-transfected control condition.

[3] = tested on: HEV Genotype 3 replicon Kernow-C1 p6/luc; assay: antiviral activity against HEV Genotype 3 replicon Kernow-C1 p6/luc in Huh7 cells (Gaussia luciferase); details: Huh-7, 96 h, 4 days, 4PL model, two experiments, read-out: relative EC50
[4] = viability evaluation (MTS/PMS) of Kernow-C1 p6/luc RNA-transfected Huh7 cells, Example 3; details: human, highest tested concentration 50 μM, read-out: relative CC50
Method: For viability evaluation, medium was removed and cells were subsequently incubated with MTS/PMS solution (3-(4,5-dimethylthiazol-2-yl)-5-(3-carboxymethoxyphenyl)-2-(4-sulfophenyl)-2H-tetrazolium/phenazinemethosulfate), which is metabolized to produce a brown, water-soluble product that is quantified after 1 h at 37° C. by absorbance read-out at 498 nm. Obtained values are expressed as percentage of untreated RNA-transfected control condition.

| SMILES | pEC50 [1] | CC50 [2] | pEC50 [3] | CC50 [4] |
| --- | --- | --- | --- | --- |
| CCOc1nc(N)nc2c1ncn2[C@@H]1O[C@](F)(CO[P@](=O)(N[C@@H](C)C(=O)OC2CCCCC2)Oc2ccccc2)[C@@H](O)[C@@]1(C)F [Compound 1] | > 9.19 | > 50000 nM | 7.89 | ≤ 50000 nM |
| CCOc1nc(N)nc2c1ncn2[C@@H]1O[C@](F)(COP(=O)(N[C@@H](C)C(=O)OC2CCCCC2)Oc2ccccc2)[C@@H](O)[C@@]1(C)O (stereo partly drawn) [Compound 2] | 8.05 | – | 7.96 | – |
| CCOc1nc(N)nc2c1ncn2[C@@H]1O[C@](F)(COP(=O)(OCOC(=O)OC(C)C)OCOC(=O)OC(C)C)[C@@H](O)[C@@]1(C)F [Compound 3] | 8.00 | – | 7.92 | – |
| CCOc1nc(N)nc2c1ncn2[C@@H]1O[C@](F)(COP(=O)(N[C@@H](C)C(=O)OC(C)C)Oc2ccccc2)[C@@H](O)[C@@]1(C)F (stereo partly drawn) [Compound 4] | 7.44 | > 50000 nM | 8.19 | – |
| CCOc1nc(N)nc2c1ncn2[C@@H]1O[C@](F)(COP(=O)(OCOC(=O)OC(C)C)OCOC(=O)OC(C)C)[C@@H](O)[C@@]1(C)O [Compound 6] | 7.64 | – | 7.59 | – |
| CC(C)OC(=O)[C@H](C)N[P@](=O)(OC[C@@]1(F)O[C@@H](n2ccc(=O)[nH]c2=O)[C@](C)(O)[C@@H]1O)Oc1ccccc1 [Compound 7] | 6.96 | – | 7.38 | – |
| CCOc1nc(N)nc2c1ncn2[C@@H]1O[C@]2(F)CO[P@@](=O)(N[C@H](C)C(=O)OC(C)C)O[C@H]2[C@@]1(C)F [Compound 8] | 6.07 | – | 6.66 | – |
| CC(C)OC(=O)OCOP(=O)(OCOC(=O)OC(C)C)OC[C@@]1(F)O[C@@H](n2ccc(=O)[nH]c2=O)[C@](C)(O)[C@@H]1O [Compound 9] | 5.32 | – | < 4.30 | – |
| C=CCOP1(=O)OC[C@@]2(F)O[C@@H](n3cnc4c(OCC)nc(N)nc43)[C@](C)(F)[C@@H]2O1 (stereo partly drawn) [Compound 10] | 5.24 | > 50000 nM | 5.89 | – |
| CC(C)OC(=O)OCOP(=O)(OCOC(=O)OC(C)C)OC[C@@]1(F)O[C@@H](n2ccc(=O)[nH]c2=O)[C@](C)(F)[C@@H]1O [Compound 11] | 5.14 | – | 6.14 | – |
